Laboratory results taken from patent US6004955A, “Cyclic carbamates and isoxazolidines as IIb/IIIa antagonists” (DuPont Pharmaceuticals Company, priority 1998, dated 1999).

Tests used:
[1] = test system: platelet aggregation (using platelet rich plasma (PRP)); experiment: Platelet Aggregation Assay (with esterase; ester prodrugs preincubated with porcine liver esterase); format: cell-based; conditions: human platelet rich plasma; preincubated with 100 IU/mL Porcine liver esterase 2 hours at 37° C.; 100 μM Adenosine Diphosphate
Protocol: (§1) Platelet Aggregation Assay: Venous blood was obtained from the arm of a healthy human donor who was drug-free and aspirin-free for at least two weeks prior to blood collection. Blood was collected into 10 mL citrated Vacutainer tubes. The blood was centrifuged for 15 minutes at 150×g at room temperature, and platelet-rich plasma (PRP) was removed. The remaining blood was centrifuged for 15 minutes at 1500×g at room temperature, and platelet-poor plasma (PPP) was removed. Samples were assayed on a aggregometer (PAP-4 Platelet Aggregation Profiler), using PPP as the blank (100% transmittance). 200 μL of PRP was added to each micro test tube, and transmittance was set to 0%. 20 μL of various agonists (ADP, collagen, arachidonate, epinephrine, thrombin) were added to each tube, and the aggregation profiles were plotted (% transmittance versus time). The results are expressed as % inhibition of agonist-inducedplatelet aggregation. For the IC50 evaluation, the test compounds were added at various concentrations prior to the activation of the platelets.
Ester prodrugs were preincubated (10^-3 M F.C.) with 100 IU/mL Porcine liver esterase (Sigma Chemical Co., St. Louis, Mo., #E-3128) for 2 hours at 37° C. Aliquots are then diluted in 0.1 M Tris, pH 7.4, to the desired concentrations. Aliquots of 20 μl of the esterase pretreated prodrugs are added to 200 μl of human platelet rich plasma. Samples were placed in platelet profiler (aggregometer) for 8 minutes at 37° C., followed by the addition of 100 μM Adenosine Diphosphate, (Sigma Chemical Co., St. Louis, Mo., #A-6521), to induce platelet aggregation. Platelet aggregation was allowed to proceed for 5 minutes. Percent inhibition is calculated using percent aggregation in the presence of the test compound divided by percent aggregation of control, times 100. This value is subtracted from 100, yielding percent inhibition. Calculation of IC50 is performed on a Texas Instruments TI59 with an IC50 program.
(§2) Table A below sets forth the antiplatelet activity of representative compounds of the present invention. The indicated compounds were tested for their ability to inhibit platelet aggregation (using platelet rich plasma (PRP)). The IC50 value (the concentration of antagonist which inhibits platelet aggregation by 50% relative to a control lacking the antagonist) is shown. In Table 5 the IC50 values are expressed as: +++=IC50 of <10 μM (μM=micromolar).

[2] = test system: platelet aggregation (using platelet rich plasma (PRP)); experiment: Platelet Aggregation Assay (without esterase); format: cell-based; conditions: human platelet rich plasma
Protocol: as §1, §2

| Structure (SMILES) | IC50 [1] | IC50 [2] |
| --- | --- | --- |
| COC(=O)[C@H](CNC(=O)C[C@@H]1CC(c2ccc(C(=N)N)cc2)N(Cc2ccccc2)O1)NS(=O)(=O)c1cccc(C)c1 (relative stereo) [Example 16, Cis-3-[2-[2-benzyl-3-[4-(aminoiminomethyl)phenyl]-isoxazolidin-5-yl]acetyl]-N-(3-methylphenylsulfonyl)-L-alanine methyl ester monotrifluoroacetic acid] | < 10 µM | – |
| COC(=O)[C@H](CNC(=O)C[C@@H]1C[C@H](c2ccc(C(=N)N)cc2)N(C)O1)NS(=O)(=O)c1c(C)noc1C (relative stereo) [Example 37, Cis-3-[2-[2-methyl-3-[4-(aminoiminomethyl)phenyl]-isoxazolidin-5-yl]acetyl]amino-N-(3,5-dimethyloxazol-4-ylsulfonyl)-L-alanine methyl ester monotrifluoroacetic] | < 10 µM | – |
| Cc1noc(C)c1S(=O)(=O)N[C@@H](CNC(=O)C[C@@H]1C[C@H](c2ccc(C(=N)N)cc2)N(C)O1)C(=O)O (relative stereo) [Example 38, Cis-3-[2-[2-methyl-3-[4-(aminoiminomethyl)phenyl]-isoxazolidin-5-yl]acetyl]amino-N-(3,5-dimethyloxazol-4-ylsulfonyl)-L-alanine monohydrogenchloride] | – | < 10 µM |
| COC(=O)[C@H](CNC(=O)CC1CC(c2ccc(C(=N)N)cc2)N(C)O1)NS(=O)(=O)c1cccc(C)c1 (stereo partly drawn) [Example 1, Cis-3-[2-[2-methyl-3-[4-(aminoiminomethyl)phenyl]-isoxazolidin-5-yl]-acetyl]amino-N-(3-methylphenylsulfonyl)-L-alanine Methyl Ester Monotrifluoroacetic Acid] | < 10 µM | – |
| Cc1cccc(S(=O)(=O)N[C@@H](CNC(=O)CC2CC(c3ccc(C(=N)N)cc3)N(C)O2)C(=O)O)c1 (stereo partly drawn) [Example 2, Cis-3-[2-[2-methyl-3-[4-(aminoiminomethyl)phenyl]-isoxazolidin-5-yl]acetyl]amino-N-(3-methylphenylsulfonyl)-L-alanine monohydrogenchloride] | – | < 10 µM |
| COC(=O)[C@H](CNC(=O)CC1CC(c2ccc(C(=N)N)cc2)N(C)O1)NS(=O)(=O)c1cccc(C)c1 (stereo partly drawn) [Example 3, Trans-3-[2-[2-methyl-3-[4-(aminoiminomethyl)phenyl]-isoxazolidin-5-yl]acetyl]amino-N-(3-methylphenylsulfonyl)-L-alanine methyl ester monotrifluoroacetic acid] | < 10 µM | – |
| Cc1cccc(S(=O)(=O)N[C@@H](CNC(=O)CC2CC(c3ccc(C(=N)N)cc3)N(Cc3ccccc3)O2)C(=O)O)c1 (stereo partly drawn) [Example 17, Cis-3-[2-[2-benzyl-3-[4-(aminoiminomethyl)phenyl]-isoxazolidin-5-yl]acetyl]amino-N-(3-methylphenylsulfonyl)-L-alanine monohydrogenchloride] | – | < 10 µM |
| COC(=O)[C@H](CNC(=O)CC1CC(c2ccc(C(=N)N)cc2)N(C(C)C)O1)NS(=O)(=O)c1cccc(C)c1 (stereo partly drawn) [Example 28, Cis-3-[2-[2-isopropyl-3-[4-(aminoiminomethyl)phenyl]-isoxazolidin-5-yl]acetyl]amino-N-(3-methylphenylsulfonyl)-L-alanine methyl ester monotrifluoroacetic acid] | < 10 µM | – |
| Cc1cccc(S(=O)(=O)N[C@@H](CNC(=O)CC2CC(c3ccc(C(=N)N)cc3)N(C(C)C)O2)C(=O)O)c1 (stereo partly drawn) [Example 29, Cis-3-[2-[2-isopropyl-3-[4-(aminoiminomethyl)phenyl]-isoxazolidin-5-yl]acetyl]amino-N-(3-methylphenylsulfonyl)-L-alanine monohydrogenchloride] | – | < 10 µM |
| COC(=O)[C@H](CNC(=O)CC1CC(c2ccc(C(=N)N)cc2)N(C)O1)NS(=O)(=O)c1ccccc1C (stereo partly drawn) [Example 32, Cis-3-[2-[2-methyl-3-[4-(aminoiminomethyl)phenyl]-isoxazolidin-5-yl]acetyl]amino-N-(2-methylphenylsulfonyl)-L-alanine methyl ester monotrifluoroacetic acid] | < 10 µM | – |
| Cc1ccccc1S(=O)(=O)N[C@@H](CNC(=O)CC1CC(c2ccc(C(=N)N)cc2)N(C)O1)C(=O)O (stereo partly drawn) [Example 33, Cis-3-[2-[2-methyl-3-[4-(aminoiminomethyl)phenyl]-isoxazolidin-5-yl]acetyl]amino-N-(2-methylphenylsulfonyl)-L-alanine monohydrogenchloride] | – | < 10 µM |
| CCCCOC(=O)N[C@@H](CNC(=O)CC1CC(c2ccc(C(=N)N)cc2)N(C)O1)C(=O)OC (stereo partly drawn) [Example 68, Cis-3-[2-[2-methyl-3-[4-(aminoiminomethyl)phenyl]-isoxazolidin-5-yl]acetyl]amino-N-n-butyloxycarbonyl-L-alanine methyl ester monotrifluoroacetic acid] | < 10 µM | – |
| CCCCOC(=O)N[C@@H](CNC(=O)CC1CC(c2ccc(C(=N)N)cc2)N(C)O1)C(=O)O (stereo partly drawn) [Example 69, Cis-3-[2-[2-methyl-3-[4-(aminoiminomethyl)phenyl]-isoxazolidin-5-yl]acetyl]amino-N-n-butyloxycarbonyl-L-alanine monohydrogenchloride] | – | < 10 µM |
| COC(=O)[C@H](CNC(=O)CC1CC(c2ccc(C(=N)N)cc2)N(c2ccccc2)O1)NS(=O)(=O)c1cccc(C)c1 (stereo partly drawn) [Example 70, Cis-3-[2-[2-phenyl-3-[4-(aminoiminomethyl)phenyl]-isoxazolidin-5-yl]acetyl]amino-N-(3-methylphenylsulfonyl)-L-alanine methyl ester monotrifluoroacetic acid] | < 10 µM | – |
| Cc1cccc(S(=O)(=O)N[C@@H](CNC(=O)CC2CC(c3ccc(C(=N)N)cc3)N(c3ccccc3)O2)C(=O)O)c1 (stereo partly drawn) [Example 71, Cis-3-[2-[2-phenyl-[4-(aminoiminomethyl)phenyl]-isoxazolidin-5-yl]actetyl]amino-N-(3-methylphenylsulfonyl)-L-alanine monohydrogenchloride] | – | < 10 µM |
| COC(=O)[C@H](CNC(=O)CC1CC(c2ccc(C(=N)N)cc2)N(C)C(=O)O1)NS(=O)(=O)c1cccc(C)c1 (stereo partly drawn) [Example 300, Cis-3-[[[4-[4-(aminoiminomethyl)phenyl]tetrahydro-3-methyl-2-oxo-2H-1,3-oxazin-6-yl]acetyl]amino]-N-[(3-methylphenyl)sulfonyl]-L-alanine methyl ester monotrifluoroacetic acid] | < 10 µM | – |
| Cc1cccc(S(=O)(=O)N[C@@H](CNC(=O)CC2CC(c3ccc(C(=N)N)cc3)N(C)C(=O)O2)C(=O)O)c1 (stereo partly drawn) [Example 301, Cis-3-[[[4-[4-(aminoiminomethyl)phenyl]tetrahydro-3-methyl-2-oxo-2H-1,3-oxazin-6-yl]acetyl]amino]-N-[(3-methylphenyl)sulfonyl]-L-alanine monohydrogenchloride] | – | < 10 µM |
| COC(=O)[C@H](CNC(=O)CC1CC(c2ccc(C(=N)N)cc2)N(Cc2ccccc2)C(=O)O1)NS(=O)(=O)c1cccc(C)c1 (stereo partly drawn) [Example 321, Cis-3-[[[4-[4-(aminoiminomethyl)phenyl]tetrahydro-3-benzyl-2-oxo-2H-1,3-oxazin-6-yl]acetyl]amino]-N-[(3-methylphenyl)sulfonyl]-L-alanine methyl ester monotrifluoroacetic acid] | < 10 µM | – |
| COC(=O)[C@H](CNC(=O)CC1CC(c2ccc(C(=N)N)cc2)N(C)C(=O)O1)NS(=O)(=O)c1ccccc1C (stereo partly drawn) [Example 327, Cis-3-[[[4-[4-(aminoiminomethyl)phenyl]tetrahydro-3-methyl-2-oxo-2H-1,3-oxazin-6-yl]acetyl]amino]-N-[(2-methylphenyl)sulfonyl]-L-alanine methyl ester monotrifluoroacetic acid] | < 10 µM | – |
| COC(=O)[C@H](CNC(=O)CC1CC(c2ccc(C(=N)N)cc2)N(C)C(=O)O1)NS(=O)(=O)c1c(C)noc1C (stereo partly drawn) [Example 335, Cis-3-[[[4-[4-(aminoiminomethyl)phenyl]tetrahydro-3-methyl-2-oxo-2H-1,3-oxazin-6-yl]acetyl]amino]-N-[(3,5dimethylisoxazol-4-yl)sulfonyl]-L-alanine methyl ester monotrifluoroacetic acid] | < 10 µM | – |
| CCCCOC(=O)N[C@@H](CNC(=O)CC1CC(c2ccc(C(=N)N)cc2)N(C)C(=O)O1)C(=O)OC (stereo partly drawn) [Example 355, Cis-3-[[[4-[4-(aminoiminomethyl)phenyl]tetrahydro-3-methyl-2-oxo-2H-1,3-oxazin-6-yl]acetyl]amino]-N-(n-butyloxycarbonyl)-L-alanine methyl ester monotrifluoroacetic acid] | < 10 µM | – |
